In brackets after ≈: the same amount, converted by molar mass. Activity calls are given as the source filed them. No cut-off for these calls is given here.
Experiments:
[1] = Octanol-water distribution coefficient, log D of the compound at pH 7.4; type: physicochemical
[2] = Dissociation constant, pKa of the compound; type: physicochemical
[3] = target: Sigma non-opioid intracellular receptor 1 (Homo sapiens, UniProt Q99720); assay: Displacement of [3H]-pentazocine from human recombinant sigma-1 receptor expressed in CHO cells after 180 mins by beta counting analysis; type: cell-based
Sequence of Sigma non-opioid intracellular receptor 1 (Q99720 whole entry): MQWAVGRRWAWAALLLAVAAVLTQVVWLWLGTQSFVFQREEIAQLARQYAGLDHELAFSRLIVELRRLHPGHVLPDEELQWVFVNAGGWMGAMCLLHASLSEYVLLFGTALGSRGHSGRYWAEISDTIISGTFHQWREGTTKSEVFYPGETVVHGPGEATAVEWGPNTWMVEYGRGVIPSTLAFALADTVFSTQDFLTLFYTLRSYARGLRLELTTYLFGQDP

[4] = Intrinsic clearance in rat liver microsomes measured per mg of protein; type: ADME; settings: read-out: CLH
Rattus norvegicus [5] = organism: Rattus norvegicus; assay: Displacement of [3H]1,3-di-O-tolylguanidine from sigma-2 receptor in rat cerebral cortex at 10 uM relative to control; type: tissue-based
[6] = target: Sodium-dependent dopamine transporter (Homo sapiens) (UniProt Q01959); assay: Binding affinity to DA transporter (unknown origin) at 10 uM by displacement assay relative to control
Sequence of Sodium-dependent dopamine transporter (Homo sapiens) (Q01959 whole entry): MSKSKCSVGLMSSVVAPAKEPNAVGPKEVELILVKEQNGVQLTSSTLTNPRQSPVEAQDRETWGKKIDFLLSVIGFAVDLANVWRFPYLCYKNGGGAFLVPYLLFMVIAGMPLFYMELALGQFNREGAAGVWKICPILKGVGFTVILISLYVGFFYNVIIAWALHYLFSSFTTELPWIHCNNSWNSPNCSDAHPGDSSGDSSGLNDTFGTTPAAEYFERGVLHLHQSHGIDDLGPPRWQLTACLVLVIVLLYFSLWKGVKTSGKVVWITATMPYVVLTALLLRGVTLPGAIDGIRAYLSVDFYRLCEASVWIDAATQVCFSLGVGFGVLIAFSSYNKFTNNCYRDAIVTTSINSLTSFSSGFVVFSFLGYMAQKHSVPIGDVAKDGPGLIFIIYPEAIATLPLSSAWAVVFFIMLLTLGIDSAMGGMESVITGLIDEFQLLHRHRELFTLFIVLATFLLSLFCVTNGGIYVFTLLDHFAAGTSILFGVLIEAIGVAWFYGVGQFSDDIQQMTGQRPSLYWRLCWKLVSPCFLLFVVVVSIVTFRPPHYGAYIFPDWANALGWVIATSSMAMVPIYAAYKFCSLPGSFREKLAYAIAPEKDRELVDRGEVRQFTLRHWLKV

[7] = target: D(3) dopamine receptor (Homo sapiens) (UniProt P35462); assay: Binding affinity to dopamine D3 receptor (unknown origin) at 10 uM by displacement assay relative to control
[8] = target: Histamine H3 receptor (Homo sapiens) (UniProt Q9Y5N1); assay: Binding affinity to histamine H3 receptor (unknown origin) at 10 uM by displacement assay relative to control
Sequence of Histamine H3 receptor (Homo sapiens) (Q9Y5N1 whole entry): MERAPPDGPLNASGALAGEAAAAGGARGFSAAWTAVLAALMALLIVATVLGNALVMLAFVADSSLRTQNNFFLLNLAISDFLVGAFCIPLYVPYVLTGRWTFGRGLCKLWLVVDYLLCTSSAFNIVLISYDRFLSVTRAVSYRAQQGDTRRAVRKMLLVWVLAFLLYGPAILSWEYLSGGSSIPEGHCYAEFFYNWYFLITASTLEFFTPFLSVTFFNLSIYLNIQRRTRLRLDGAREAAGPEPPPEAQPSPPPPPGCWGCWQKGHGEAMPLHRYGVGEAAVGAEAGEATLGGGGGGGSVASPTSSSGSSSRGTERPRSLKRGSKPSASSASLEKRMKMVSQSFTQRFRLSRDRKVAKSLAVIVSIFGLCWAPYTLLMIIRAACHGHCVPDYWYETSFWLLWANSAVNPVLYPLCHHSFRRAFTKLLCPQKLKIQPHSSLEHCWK

[9] = target: T1, Alpha-2C adrenergic receptor (Homo sapiens) (UniProt P18825); assay: Binding affinity to adrenergic alpha-2c receptor (unknown origin) at 10 uM by displacement assay relative to control
T1 sequence (whole entry): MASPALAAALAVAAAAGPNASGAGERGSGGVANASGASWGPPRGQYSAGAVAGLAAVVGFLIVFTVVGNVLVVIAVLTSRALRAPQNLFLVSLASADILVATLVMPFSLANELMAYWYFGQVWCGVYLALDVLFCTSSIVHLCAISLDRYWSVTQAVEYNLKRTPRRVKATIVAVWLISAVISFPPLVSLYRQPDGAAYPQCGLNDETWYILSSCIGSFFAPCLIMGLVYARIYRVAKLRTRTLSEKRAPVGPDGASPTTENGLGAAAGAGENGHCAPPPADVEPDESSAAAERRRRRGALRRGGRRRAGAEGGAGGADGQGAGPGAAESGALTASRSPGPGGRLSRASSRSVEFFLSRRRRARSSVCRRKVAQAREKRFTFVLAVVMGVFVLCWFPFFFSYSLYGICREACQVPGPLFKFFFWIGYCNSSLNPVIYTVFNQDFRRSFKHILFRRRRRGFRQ

[10] = target: Sodium-dependent noradrenaline transporter (Homo sapiens) (UniProt P23975); assay: Binding affinity to NE transporter (unknown origin) at 10 uM by displacement assay relative to control
Sequence of Sodium-dependent noradrenaline transporter (Homo sapiens) (P23975 whole entry): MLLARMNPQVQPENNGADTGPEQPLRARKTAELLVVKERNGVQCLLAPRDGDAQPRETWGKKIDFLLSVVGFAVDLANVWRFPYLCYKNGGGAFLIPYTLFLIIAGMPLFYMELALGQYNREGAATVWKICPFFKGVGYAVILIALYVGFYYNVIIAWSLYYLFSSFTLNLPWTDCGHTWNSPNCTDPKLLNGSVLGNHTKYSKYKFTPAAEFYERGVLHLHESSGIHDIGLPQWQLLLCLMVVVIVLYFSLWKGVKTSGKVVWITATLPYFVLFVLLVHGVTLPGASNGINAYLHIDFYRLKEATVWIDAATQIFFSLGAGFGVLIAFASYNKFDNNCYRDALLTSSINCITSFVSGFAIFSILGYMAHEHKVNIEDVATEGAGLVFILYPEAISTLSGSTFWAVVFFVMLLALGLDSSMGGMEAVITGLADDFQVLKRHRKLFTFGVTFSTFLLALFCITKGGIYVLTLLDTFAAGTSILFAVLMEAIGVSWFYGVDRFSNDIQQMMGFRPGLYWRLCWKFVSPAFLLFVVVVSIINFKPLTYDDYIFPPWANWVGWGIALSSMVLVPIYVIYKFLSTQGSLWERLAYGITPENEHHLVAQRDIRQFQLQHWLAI

[11] = target: 5-hydroxytryptamine receptor 2A (Homo sapiens) (UniProt P28223); assay: Binding affinity to 5HT-2a receptor (unknown origin) at 10 uM by displacement assay relative to control
Sequence of 5-hydroxytryptamine receptor 2A (Homo sapiens) (P28223 whole entry): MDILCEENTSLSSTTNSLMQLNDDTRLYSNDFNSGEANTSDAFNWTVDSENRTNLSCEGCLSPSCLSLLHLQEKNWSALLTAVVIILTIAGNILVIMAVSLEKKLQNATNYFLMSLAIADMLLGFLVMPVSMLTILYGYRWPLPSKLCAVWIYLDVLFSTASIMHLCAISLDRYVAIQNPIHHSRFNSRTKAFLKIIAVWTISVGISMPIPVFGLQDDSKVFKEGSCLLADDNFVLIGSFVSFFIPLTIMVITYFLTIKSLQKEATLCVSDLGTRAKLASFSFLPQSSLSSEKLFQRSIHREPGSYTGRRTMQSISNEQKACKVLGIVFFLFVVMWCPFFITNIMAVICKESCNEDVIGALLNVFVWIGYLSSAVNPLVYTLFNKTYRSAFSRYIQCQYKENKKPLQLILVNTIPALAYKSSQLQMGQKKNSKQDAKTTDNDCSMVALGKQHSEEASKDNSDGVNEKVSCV

[12] = target: D(2) dopamine receptor (Homo sapiens) (UniProt P14416); assay: Binding affinity to dopamine D2 receptor (unknown origin) at 10 uM by displacement assay relative to control
[13] = target: D(4) dopamine receptor (Homo sapiens) (UniProt P21917); assay: Binding affinity to dopamine D4 receptor (unknown origin) at 10 uM by displacement assay relative to control
Sequence of D(4) dopamine receptor (Homo sapiens) (P21917 whole entry): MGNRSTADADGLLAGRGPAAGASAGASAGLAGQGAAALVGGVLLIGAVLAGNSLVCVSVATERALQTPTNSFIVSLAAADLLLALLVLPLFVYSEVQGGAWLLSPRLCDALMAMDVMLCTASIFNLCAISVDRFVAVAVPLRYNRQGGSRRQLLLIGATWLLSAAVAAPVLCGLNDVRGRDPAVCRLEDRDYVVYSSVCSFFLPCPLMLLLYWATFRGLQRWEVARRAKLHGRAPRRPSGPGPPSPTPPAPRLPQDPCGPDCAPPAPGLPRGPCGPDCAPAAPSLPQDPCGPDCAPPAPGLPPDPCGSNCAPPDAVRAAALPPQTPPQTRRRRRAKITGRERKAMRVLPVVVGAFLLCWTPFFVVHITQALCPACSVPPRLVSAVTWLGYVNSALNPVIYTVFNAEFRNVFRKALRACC

[14] = target: Sodium-dependent serotonin transporter (Homo sapiens) (UniProt P31645); assay: Binding affinity to 5HT transporter (unknown origin) at 10 uM by displacement assay relative to control
[15] = target: Adrenergic receptor alpha-1 (Homo sapiens) (UniProt P35348+P25100+P35368); assay: Binding affinity to adrenergic alpha-1 receptor (unknown origin) at 10 uM by displacement assay relative to control; type: protein assay
[16] = target: Mu-type opioid receptor (Homo sapiens) (UniProt P35372); assay: Binding affinity to mu opioid receptor (unknown origin) at 10 uM by displacement assay relative to control
Sequence of Mu-type opioid receptor (Homo sapiens) (P35372 whole entry): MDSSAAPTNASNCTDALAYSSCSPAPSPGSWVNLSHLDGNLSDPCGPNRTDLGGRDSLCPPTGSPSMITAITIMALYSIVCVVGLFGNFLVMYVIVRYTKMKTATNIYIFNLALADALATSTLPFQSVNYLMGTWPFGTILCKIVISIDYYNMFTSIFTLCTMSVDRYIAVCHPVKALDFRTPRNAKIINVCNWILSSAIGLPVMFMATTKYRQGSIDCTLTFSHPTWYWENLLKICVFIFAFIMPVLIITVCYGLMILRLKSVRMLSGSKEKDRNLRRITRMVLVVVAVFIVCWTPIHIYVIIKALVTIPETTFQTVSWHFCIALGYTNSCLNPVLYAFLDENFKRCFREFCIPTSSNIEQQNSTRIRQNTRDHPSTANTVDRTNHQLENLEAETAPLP

[17] = Ratio of drug level in brain to plasma in C57BL6/J mouse at 1 mg/kg, ip measured at 40 mins; type: ADME, organism-based; design: dose 1 mg/kg, route intraperitoneal; settings: brain and plasma, read-out: BPR
[18] = Intrinsic clearance in mouse liver microsomes measured per mg of protein; type: ADME; settings: read-out: CLH
Mus musculus [19] = assay: Antiamnesic activity in C57BL6/J mouse assessed as reduction of scopolamine-induced memory deficit at 0.03 to 1 mg/kg, ip administered 40 mins prior to acquisition trial by two-trial object recognition test; type: functional, organism-based
[20] = target: Acetylcholinesterase (Homo sapiens) (UniProt P22303); assay: Binding affinity to AChE (unknown origin) at 10 uM by displacement assay relative to control
Sequence of Acetylcholinesterase (Homo sapiens) (P22303 whole entry): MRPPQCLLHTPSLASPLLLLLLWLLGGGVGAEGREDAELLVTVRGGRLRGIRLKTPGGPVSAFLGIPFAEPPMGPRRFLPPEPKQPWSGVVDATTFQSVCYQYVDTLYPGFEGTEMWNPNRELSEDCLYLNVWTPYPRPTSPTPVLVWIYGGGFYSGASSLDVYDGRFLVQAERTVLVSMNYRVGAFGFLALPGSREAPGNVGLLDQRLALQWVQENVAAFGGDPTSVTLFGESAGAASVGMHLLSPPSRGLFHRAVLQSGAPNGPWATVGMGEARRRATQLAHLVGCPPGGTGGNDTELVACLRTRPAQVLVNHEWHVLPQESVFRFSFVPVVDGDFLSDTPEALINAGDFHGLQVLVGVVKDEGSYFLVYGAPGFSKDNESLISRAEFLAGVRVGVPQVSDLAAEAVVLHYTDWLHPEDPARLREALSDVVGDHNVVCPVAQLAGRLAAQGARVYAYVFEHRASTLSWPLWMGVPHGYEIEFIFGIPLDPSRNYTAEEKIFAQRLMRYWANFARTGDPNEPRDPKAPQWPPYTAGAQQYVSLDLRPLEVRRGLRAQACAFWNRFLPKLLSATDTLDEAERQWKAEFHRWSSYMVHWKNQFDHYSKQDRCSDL

[21] = target: Kappa-type opioid receptor (Homo sapiens) (UniProt P41145); assay: Binding affinity to kappa opioid receptor (unknown origin) at 10 uM by displacement assay relative to control
Sequence of Kappa-type opioid receptor (Homo sapiens) (P41145 whole entry): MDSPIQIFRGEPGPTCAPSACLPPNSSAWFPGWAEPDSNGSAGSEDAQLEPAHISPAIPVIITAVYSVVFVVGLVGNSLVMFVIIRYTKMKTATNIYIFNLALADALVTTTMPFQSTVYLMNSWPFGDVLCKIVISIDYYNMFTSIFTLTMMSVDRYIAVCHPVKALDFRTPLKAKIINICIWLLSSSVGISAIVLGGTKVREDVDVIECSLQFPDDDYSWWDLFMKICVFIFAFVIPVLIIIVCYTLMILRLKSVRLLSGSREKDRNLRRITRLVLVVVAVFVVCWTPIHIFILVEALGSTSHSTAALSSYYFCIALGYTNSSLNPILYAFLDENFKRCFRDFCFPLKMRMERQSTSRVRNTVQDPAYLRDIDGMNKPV

[22] = Apparent permeability across apical to basolateral side in human Caco2 cells at 20 uM measured up to 3 hrs; type: ADME, cell-based; settings: Caco-2
Homo sapiens [23] = organism: Homo sapiens; assay: Binding affinity to […] channel (unknown origin) at 10 uM by displacement assay relative to control
[24] = target: Muscarinic acetylcholine receptor (Rattus norvegicus) (UniProt P08482+P08483+P08485+P08911+P10980); assay: Displacement of [3H]-QNB from muscarinic receptor in rat cerebral cortex at 10 uM relative to control; type: tissue-based
[25] = target: 5-hydroxytryptamine receptor 1A (Homo sapiens) (UniProt P08908); assay: Binding affinity to 5-HT1a receptor (unknown origin) at 10 uM by displacement assay relative to control
Mus musculus [26] = assay: Antiamnesic activity in C57BL6/J mouse assessed as reduction of scopolamine-induced memory deficit at 1 to 23 mg/kg, ip administered 40 mins prior to acquisition trial by two-trial object recognition test; type: functional, organism-based
[27] = Solubility of the compound at pH 7.4; type: physicochemical; settings: buffer
Homo sapiens [28] = organism: Homo sapiens; assay: Binding affinity to Ca2+ channel (unknown origin) at 10 uM by displacement assay relative to control
[29] = Intrinsic clearance in human liver microsomes measured per mg of protein; type: ADME; settings: read-out: CLH
[30] = target: Histamine H1 receptor (Homo sapiens) (UniProt P35367); assay: Binding affinity to histamine H1 receptor (unknown origin) at 10 uM by displacement assay relative to control
Sequence of Histamine H1 receptor (Homo sapiens) (P35367 whole entry): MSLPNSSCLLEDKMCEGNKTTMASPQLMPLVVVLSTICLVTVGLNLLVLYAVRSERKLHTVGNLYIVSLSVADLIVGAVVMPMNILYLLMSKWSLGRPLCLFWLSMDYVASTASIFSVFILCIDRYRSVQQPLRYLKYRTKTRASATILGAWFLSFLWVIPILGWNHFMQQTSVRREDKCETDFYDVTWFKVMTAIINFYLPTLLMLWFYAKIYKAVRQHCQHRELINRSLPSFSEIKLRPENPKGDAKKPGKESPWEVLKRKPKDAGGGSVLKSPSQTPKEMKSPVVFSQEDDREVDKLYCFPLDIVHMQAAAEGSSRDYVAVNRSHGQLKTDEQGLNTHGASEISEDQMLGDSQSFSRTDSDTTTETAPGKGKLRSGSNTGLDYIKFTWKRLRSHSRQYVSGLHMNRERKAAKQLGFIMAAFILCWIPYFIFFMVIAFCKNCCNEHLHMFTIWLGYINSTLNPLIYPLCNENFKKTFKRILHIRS

Rattus norvegicus [31] = organism: Rattus norvegicus; assay: Displacement of [3H]1,3-di-O-tolylguanidine from sigma-2 receptor in rat cerebral cortex; type: tissue-based; settings: concentration not given here
[32] = target: Alpha-2B adrenergic receptor (Homo sapiens) (UniProt P18089); assay: Binding affinity to adrenergic alpha-2b receptor (unknown origin) at 10 uM by displacement assay relative to control
[33] = target: Opioid receptor (Rattus norvegicus) (UniProt P33533+P34975+P33535); assay: Displacement of [3H]-naloxone from opioid receptor in rat cerebral cortex at 10 uM relative to control; type: tissue-based
[34] = target: 5-hydroxytryptamine receptor 7 (Homo sapiens) (UniProt P34969); assay: Binding affinity to 5HT-7 receptor (unknown origin) at 10 uM by displacement assay relative to control
[35] = target: 5-hydroxytryptamine receptor 6 (Homo sapiens) (UniProt P50406); assay: Binding affinity to 5HT-6 receptor (unknown origin) at 10 uM by displacement assay relative to control

Compound	pKa [2]	Ki [3]	microsomal CLint [4]	logD ([1]; read-out: logD)	inhibition [11]	other results
O=C(NCCCNC1CCCCC1)[C@H]1C[C@@H]1c1ccccc1 (racemic) [listing 1 of 2 here]	10.1	200 nM				logD [1]: 1.3
O=C(NCCN1CCN(Cc2c(F)cccc2Cl)CC1)[C@H]1C[C@@H]1c1ccccc1 (racemic)		25.1 nM	283 µL/min/mg	3.7		
O=C([C@H]1C[C@@H]1c1ccccc1)N1CCN(c2ccccc2)CC1 (racemic)	< 2.5	1260 nM		3.8		
COc1ccc(CCN2CCN(CCCc3ccccc3)CC2)cc1OC					50%	inhibition (Rattus norvegicus [5]): 99%; inhibition [6]: 50%; inhibition [7]: 50%; inhibition [8]: 50%; inhibition [9]: 50%; inhibition [10]: > 90%; inhibition [12]: 50%; inhibition [13]: 50%; inhibition [14]: 50%; inhibition [15]: > 90%
C=CCN1CC[C@]2(C)c3cc(O)ccc3C[C@@H]1[C@@H]2C		158 nM	313 µL/min/mg			inhibition [16]: 50%; Kp at 40 min [17]: 5.64; microsomal CLint [18]: 17 µL/min/mg; inhibition (Rattus norvegicus [5]): 29%; Activity (Mus musculus [19]): Active; inhibition [20]: 50%; inhibition [21]: > 90%; Papp A→B at 3 h, 20 µM [22]: 20.2 ×10⁻⁶ cm/s
O=C([C@H]1C[C@@H]1c1ccc(F)cc1)N1CCC(CNCC2CCCCC2)CC1 (racemic)		79.4 nM	17 µL/min/mg			inhibition (Homo sapiens [23]): 50%; inhibition [24]: 50%; inhibition [25]: 50%
O=C(NCCN1CCN(C(=O)c2c(F)cccc2Cl)CC1)[C@H]1C[C@@H]1c1ccccc1 (racemic)		631 nM	81 µL/min/mg	2.3	> 90%	
O=C([C@H]1C[C@@H]1c1ccccc1)N1CCC(N2CCCCC2)CC1 (racemic)	9.3	79.4 nM	32 µL/min/mg	1.1		Kp at 40 min [17]: 13.5; microsomal CLint [18]: 50 µL/min/mg; inhibition (Rattus norvegicus [5]): 50%; Activity (Mus musculus [26]): Active; solubility [27]: 1100 µg/mL (≈ 3.52 mM); inhibition [8]: 50%; inhibition (Homo sapiens [28]): 50%; Papp A→B at 3 h, 20 µM [22]: 16.6 ×10⁻⁶ cm/s; microsomal CLint [29]: 56 µL/min/mg
O=C([C@H]1C[C@@H]1c1ccccc1)N1CCC(N2CCCC2)CC1 (racemic)	9.3	200 nM	25 µL/min/mg	0.7		
O=C(NCCCNC1CCCCC1)[C@H]1C[C@@H]1c1ccccc1 (stereo in doubt; (-)-1) [listing 1 of 2 here]						inhibition (Homo sapiens [23]): 50%
CC(C)N(CCNC(=O)[C@H]1C[C@@H]1c1ccccc1)C(C)C (racemic)	9.7	63.1 nM	> 300 µL/min/mg	1	50%	
O=C(NCCN1CCN(Cc2ccc(Cl)c(Cl)c2)CC1)[C@H]1C[C@@H]1c1ccccc1 (racemic)		10 nM	200 µL/min/mg	> 4	> 90%	inhibition [30]: 50%; inhibition (Homo sapiens [23]): 50%
O=C(NCCN1CCCC1)[C@H]1C[C@@H]1c1ccccc1 (racemic)	9.2	63.1 nM		0.9	> 90%	
O=C(NCCCNC1CCCCC1)[C@H]1C[C@@H]1c1ccccc1 (stereo in doubt; (-)-1) [listing 2 of 2 here]		158 nM		1.1		
O=C(NCCCNC1CCCCC1)[C@H]1C[C@@H]1c1ccccc1 (racemic) [listing 2 of 2 here]					50%	inhibition (Homo sapiens [28]): > 90%; inhibition [15]: 50%
O=C(NC1CCC(N2CCCCC2)CC1)[C@H]1C[C@@H]1c1ccccc1 (mixture of isomers)	9.6	1260 nM		0.9		
O=C(NCCCNC1CCCCC1)[C@H]1C[C@@H]1c1ccccc1 (stereo in doubt; (+)-1) [listing 1 of 2 here]					> 90%	inhibition (Homo sapiens [23]): 50%; inhibition (Rattus norvegicus [31]): 6.6%; inhibition [9]: 50%; inhibition (Homo sapiens [28]): 50%; inhibition [32]: 50%; inhibition [15]: 50%
CN(C)CC(C)(C)CNC(=O)[C@H]1C[C@@H]1c1ccccc1 (racemic)	8.9	398 nM		0.8		
O=C([C@H]1C[C@@H]1c1ccc(F)cc1)N1CCC(N2CCCCC2)CC1 (racemic)		100 nM				inhibition (Rattus norvegicus [5]): 61%
O=C(NCCCNC1CCCCC1)[C@H]1C[C@@H]1c1ccccc1 (stereo in doubt; (+)-1) [listing 2 of 2 here]		158 nM	147 µL/min/mg			
CCN(CC)CCNC(=O)[C@H]1C[C@@H]1c1ccccc1 (racemic)	8.9	126 nM		0.6	50%	inhibition [33]: > 90%
O=C(NCCCN1CCN(Cc2c(F)cccc2Cl)CC1)[C@H]1C[C@@H]1c1ccccc1 (racemic)		25.1 nM	305 µL/min/mg	3.5	> 90%	inhibition [30]: 50%; inhibition [9]: 50%; inhibition (Homo sapiens [28]): > 90%; inhibition [15]: 50%
O=C(NCCN1CCN(Cc2ccccc2)CC1)[C@H]1C[C@@H]1c1ccccc1 (racemic)		15.8 nM	122 µL/min/mg	2.8	50%	inhibition [16]: 50%; inhibition [6]: 50%; inhibition [34]: 50%; inhibition [10]: 50%; inhibition [21]: 50%; inhibition [13]: > 90%; inhibition [35]: 50%

Source: ChEMBL document CHEMBL3217650, “Discovery of novel selective Sigma-1 ligands as cognitive enhancers” (Medchemcomm, 2011)
